According to ChEMBL document CHEMBL3880422, “C-terminal modified oxamyl dipeptides as inhibitors of the ICE/ced-3 family of cysteine proteases” (2007):

Columns and labels:
Caspase-1 (Mus musculus) = molecular target: T1, Caspase-1 (Mus musculus) (UniProt P29452); test: (§1) Inhibition of mouse recombinant ICE assessed as ratio of irreversible rate constant K3 to dissociation constant of the reversible binding step Ki pre-incubated for 60 mins with Acetyl-Tyr-Val-Ala-Asp-amino-4-methylcoumarin substrate followed by enzyme addition by fluorescence based assay
T1 sequence (whole entry): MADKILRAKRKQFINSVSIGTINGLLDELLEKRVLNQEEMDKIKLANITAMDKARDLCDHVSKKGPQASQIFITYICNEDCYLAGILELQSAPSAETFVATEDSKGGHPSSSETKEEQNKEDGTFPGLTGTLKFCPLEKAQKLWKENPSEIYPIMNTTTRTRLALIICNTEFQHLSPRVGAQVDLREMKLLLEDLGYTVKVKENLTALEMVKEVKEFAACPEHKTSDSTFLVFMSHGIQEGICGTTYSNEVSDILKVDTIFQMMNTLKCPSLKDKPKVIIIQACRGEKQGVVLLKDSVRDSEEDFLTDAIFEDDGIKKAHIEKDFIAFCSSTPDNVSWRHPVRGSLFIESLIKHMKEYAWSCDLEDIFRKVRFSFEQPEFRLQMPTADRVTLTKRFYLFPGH

Caspase-3 (Homo sapiens) = molecular target: T2, Caspase-3 (Homo sapiens) (UniProt P42574); test: as §1, with “of” for “of mouse”, “CPP32 (unknown origin)” for “ICE”
T2 sequence (whole entry): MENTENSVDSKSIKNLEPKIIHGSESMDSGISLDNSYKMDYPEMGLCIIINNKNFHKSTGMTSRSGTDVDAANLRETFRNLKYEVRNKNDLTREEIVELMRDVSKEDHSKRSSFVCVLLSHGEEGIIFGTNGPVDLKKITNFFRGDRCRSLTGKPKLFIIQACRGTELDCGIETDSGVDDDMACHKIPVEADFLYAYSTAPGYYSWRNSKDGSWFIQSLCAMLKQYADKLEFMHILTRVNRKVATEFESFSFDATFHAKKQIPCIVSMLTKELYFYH

Caspase-6 (Homo sapiens) = molecular target: T3, Caspase-6 (Homo sapiens) (UniProt P55212); test: Inhibition of recombinant MCH2 (unknown origin) assessed as ratio of irreversible rate constant K3 to dissociation constant of the reversible binding step Ki pre-incubated for 60 mins with Acetyl-Tyr-Val-Ala-Asp-amino-4-methylcoumarin substrate followed by enzyme addition by fluorescence based assay
T3 sequence (whole entry): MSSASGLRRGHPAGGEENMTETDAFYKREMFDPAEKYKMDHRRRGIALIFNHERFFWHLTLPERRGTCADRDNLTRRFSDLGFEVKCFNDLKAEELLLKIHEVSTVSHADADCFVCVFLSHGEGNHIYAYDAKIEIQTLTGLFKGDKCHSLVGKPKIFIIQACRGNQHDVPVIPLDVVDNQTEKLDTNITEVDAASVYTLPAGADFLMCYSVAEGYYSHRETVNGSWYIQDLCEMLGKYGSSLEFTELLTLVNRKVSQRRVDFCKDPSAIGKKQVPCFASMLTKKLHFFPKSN

Caspase-8 (Homo sapiens) = Caspase-8 (Homo sapiens) (UniProt Q14790); test: Inhibition of recombinant MCH5 (unknown origin) assessed as ratio of irreversible rate constant K3 to dissociation constant of the reversible binding step Ki pre-incubated for 60 mins with Acetyl-Tyr-Val-Ala-Asp-amino-4-methylcoumarin substrate followed by enzyme addition by fluorescence based assay
Caspase-8 (Homo sapiens), sequence (Q14790 217-374 limits assumed): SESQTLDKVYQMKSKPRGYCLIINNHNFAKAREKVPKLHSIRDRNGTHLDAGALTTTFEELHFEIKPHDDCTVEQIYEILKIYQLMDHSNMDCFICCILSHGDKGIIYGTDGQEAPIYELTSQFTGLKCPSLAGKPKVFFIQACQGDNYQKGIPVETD
Caspase-8 (Homo sapiens), sequence (Q14790 385-479 limits assumed): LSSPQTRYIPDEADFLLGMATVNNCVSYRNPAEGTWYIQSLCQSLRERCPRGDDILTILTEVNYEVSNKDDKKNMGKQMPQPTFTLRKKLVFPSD

Ratio (Caspase-1 (Mus musculus))	Ratio (Caspase-3 (Homo sapiens))	Ratio (Caspase-6 (Homo sapiens))	Ratio (Caspase-8 (Homo sapiens))	SMILES
344000 M⁻¹ s⁻¹	54800 M⁻¹ s⁻¹	25300 M⁻¹ s⁻¹	105000 M⁻¹ s⁻¹	CC(C)[C@H](NC(=O)C(=O)Nc1ccccc1Cc1ccccc1)C(=O)N[C@@H](CC(=O)O)C(=O)COc1c(F)c(F)cc(F)c1F
259000 M⁻¹ s⁻¹	388000 M⁻¹ s⁻¹	219000 M⁻¹ s⁻¹	125000 M⁻¹ s⁻¹	C[C@H](NC(=O)C(=O)Nc1ccccc1-c1ccccc1)C(=O)N[C@@H](CC(=O)O)C(=O)COC(=O)c1c(Cl)cccc1Cl
90100 to 1.27e+06 M⁻¹ s⁻¹	67600 to 942000 M⁻¹ s⁻¹	28200 to 360000 M⁻¹ s⁻¹	337000 to 551000 M⁻¹ s⁻¹	C[C@H](NC(=O)C(=O)Nc1ccccc1I)C(=O)N[C@@H](CC(=O)O)C(=O)COC(=O)c1c(Cl)cccc1Cl
2.59e+06 M⁻¹ s⁻¹	158000 M⁻¹ s⁻¹	335000 M⁻¹ s⁻¹	1.26e+06 M⁻¹ s⁻¹	C[C@H](NC(=O)C(=O)NCc1cccc2ccccc12)C(=O)N[C@@H](CC(=O)O)C(=O)COc1c(F)c(F)cc(F)c1F
2.68e+06 M⁻¹ s⁻¹	62900 M⁻¹ s⁻¹	1.08e+06 M⁻¹ s⁻¹	1.83e+06 M⁻¹ s⁻¹	CC(C)[C@H](NC(=O)C(=O)Nc1c(F)cccc1F)C(=O)N[C@@H](CC(=O)O)C(=O)COc1c(F)c(F)cc(F)c1F
27400 M⁻¹ s⁻¹	3130 M⁻¹ s⁻¹	1840 M⁻¹ s⁻¹	20800 M⁻¹ s⁻¹	CC(C)[C@H](NC(=O)C(=O)Nc1nc2ccccc2[nH]1)C(=O)N[C@@H](CC(=O)O)C(=O)COc1c(F)c(F)cc(F)c1F
1.04e+06 M⁻¹ s⁻¹	57400 M⁻¹ s⁻¹	261000 M⁻¹ s⁻¹	41000 M⁻¹ s⁻¹	CC(C)[C@H](NC(=O)C(=O)Nc1ccccc1C(F)(F)F)C(=O)N[C@@H](CC(=O)O)C(=O)COc1c(F)c(F)cc(F)c1F
167000 M⁻¹ s⁻¹	55600 M⁻¹ s⁻¹	35000 M⁻¹ s⁻¹	37800 M⁻¹ s⁻¹	C[C@H](NC(=O)C(=O)Nc1ccccc1-c1ccccc1)C(=O)N[C@@H](CC(=O)O)C(=O)COc1ccccc1F
1.8e+06 M⁻¹ s⁻¹	21000 M⁻¹ s⁻¹	16600 M⁻¹ s⁻¹	472000 M⁻¹ s⁻¹	CC(C)[C@H](NC(=O)C(=O)NCc1ccccc1)C(=O)N[C@@H](CC(=O)O)C(=O)COc1c(F)c(F)cc(F)c1F
58500 M⁻¹ s⁻¹	5560 M⁻¹ s⁻¹	11200 M⁻¹ s⁻¹	49600 M⁻¹ s⁻¹	CC(C)[C@H](NC(=O)C(=O)Nc1ccccc1F)C(=O)N[C@@H](CC(=O)O)C(=O)COc1c(F)c(F)cc(F)c1F

SMILES	Ratio (Caspase-1 (Mus musculus))	Ratio (Caspase-3 (Homo sapiens))	Ratio (Caspase-6 (Homo sapiens))	Ratio (Caspase-8 (Homo sapiens))
C[C@H](NC(=O)C(=O)Nc1ccccc1Cl)C(=O)N[C@@H](CC(=O)O)C(=O)COP(=O)(c1ccccc1)c1ccccc1	103000 to 1.98e+06 M⁻¹ s⁻¹	162000 to 564000 M⁻¹ s⁻¹	247000 to 373000 M⁻¹ s⁻¹	179000 to 2.33e+06 M⁻¹ s⁻¹
